From publication PMC2359919, “Molecular targeting of retinoic acid metabolism in neuroblastoma: the role of the CYP26 inhibitor R116010 in vitro and in vivo” (British Journal of Cancer, 2007)

Experiments:
[1] = test system: RA metabolism; test: Effect of R116010 on retinoid concentrations (plasma, liver, tumour) in an SH-SY5Y xenograft model, LC/MS; type: in vivo, CD-1 nude mice
Description: All in vivo experiments were approved by the relevant institutional animal welfare committees, and performed according to national law. Female athymic nude mice (CD-1 nu/nu, Charles River) used for antitumour studies were maintained and handled in isolators, under specific pathogen-free conditions, at 24°C with a 12 h light, 12 h dark cycle. Tumours were generated by implantation of SH-SY5Y cells subcutaneously (s.c.) into one flank of CD-1 nude mice (1 × 10^7 cells per animal).
Treatments began when the tumours were between 7 and 10 mm in length and breadth. Retinoids and R116010 were initially dissolved in DMSO before 10- or 20-fold dilutions in PBS, respectively. For pharmacokinetic studies, the animals were dosed with ATRA or 13cisRA (each 100 mg kg^−1) orally for 0.5, 2 and 6 h. For metabolism studies, animals were treated with R116010 orally at doses of 1.25 or 2.5 mg kg^−1 either immediately before the retinoid being studied, or up to three times (over 1–2 days) before dosing with the retinoid. At termination of experiments, animals were bled under terminal anaesthesia then killed by cervical dislocation. Plasma was immediately removed from the blood by centrifugation at 1000 g for 5 min and snap-frozen in liquid nitrogen in amber Eppendorfs. Tumour and liver samples were removed and snap-frozen, wrapped in foil, in liquid nitrogen.
(§1) Cell pellets obtained from retinoid incubations were re-suspended in 2 ml cell culture medium and disrupted by passing the samples several times through a syringe and hypodermic needle (25G × 1 inches, 0.5 mm × 25 mm; Terumo, Somerset, NJ, USA). Tumour and liver tissues were re-suspended in PBS and homogenised (T25 homogeniser, IKA Laboratories, Staufen, Germany). Retinoids were extracted as described previously ([Veal et al, 2002]; [Armstrong et al, 2005b]). Samples were reconstituted in 200 μl mobile phase A (n-hexane:dichloromethane:propan-2-ol, 400 : 1 : 0.27) and analysed by normal-phase HPLC as described previously ([Veal et al, 2002]). For LC/MS analysis, samples were reconstituted in 200 μl mobile phase A (50% acetonitrile, 50% (0.2%) acetic acid, v v^−1).
Resolution of retinoids was performed with a Luna C18(2) column (3 μm, 50 mm × 2 mm) using a Perkin Elmer LC (Beaconsfield, UK) system, consisting of a vacuum degasser, two series 200 pumps, a thermostatically controlled series 200 autosampler and a Waters 2487 UV absorbance detector. Retinoic isomers and metabolites were separated by gradient reversed-phase chromatography. An injection volume of 20 μl with a flow rate of 0.2 ml min^−1 was used with mobile phase A (50% acetonitrile, 50% (0.2%) acetic acid, v v^−1) and mobile phase B (acetonitrile, 0.1% acetic acid, v v^−1). Linear gradients were employed between the specified times as follows: 0, 100% A; 5 min, 100% A; 15 min, 100% B; 20 min, 100% B; 23 min, 100% A; 35 min, 100% A. An Applied Biosystems (Warrington, UK) API-2000 LC/MS/MS triple Q (quadrupole) mass spectrometer with electrospray ionisation source, controlled by Analyst software, was operated in single quadrupole negative mode for the detection of compounds.

[2] = test system: SH-SY5Y, NGP, SH-EP and GIMEN cells; test: Intracellular ATRA and 13cisRA concentrations in neuroblastoma cells, normal-phase HPLC; type: cell-based, human
Description: SH-SY5Y, SH-EP (N- and S-type cells respectively derived from the parental line SK-N-SH), LAN6, IMR-32, NGP and GIMEN neuroblastoma cell lines were cultured routinely in RPMI 1640 medium containing fetal calf serum (10%) and L-glutamine (2 mM). Cells were grown at 37°C in a humidified incubator containing 5% CO2.
13-cis-Retinoic acid and ATRA were dissolved in DMSO and diluted in cell culture medium to obtain final concentrations of 0.1–10 μM. The final concentration of DMSO in all cases was <0.2%. All experiments were performed in dim light and tubes containing retinoids were wrapped in aluminium foil.
as §1
Quantification of retinoid levels was carried out by HPLC analysis using a Waters 2690 Separations Module and 996 Photodiode array detector (Waters Ltd, Elstree, UK) and Waters Millennium software for data acquisition. Cell volumes were determined as described previously ([Veal et al, 2002]), and intracellular RA concentrations were expressed in micromolars.

[3] = 13cisRA 100 mg kg^−1 with increasing doses of R116010, 6 h
[4] = ATRA-treated mice (100 mg kg^−1) with R116010, 6 h

C[C@@H]([C@H](c1ccc(Nc2nc3ccccc3s2)cc1)n1ccnc1)N(C)C [R116010]
Increase in 13cisRA plasma concentration ([1]; 13cisRA 100 mg kg^−1 after four doses of R116010 at 2.5 mg kg^−1 vs 13cisRA alone, 6 h): ≤ 4.6 fold | Effect on 13cisRA plasma concentrations ([1]; 13cisRA 100 mg kg^−1 with increasing doses of R116010 (1.25; 2.5 mg kg^−1 x1, x2, x4) vs retinoid alone, 6 h): significant increases | Effect on plasma 13cis-4-oxo-RA concentrations [1, 3]: no significant dose-dependent effect | Effect on plasma AT-4-oxo-RA concentrations [1, 3]: apparent linear increase | Effect on ATRA plasma concentrations ([1]; 13cisRA 100 mg kg^−1 with increasing doses of R116010 vs retinoid alone, 6 h): significant increases | Effect on liver ATRA levels ([1]; 13cisRA 100 mg kg^−1 with one and two doses of 2.5 mg kg^−1 R116010, 6 h): increased slightly | Tumour 13cisRA levels with R116010 ([1]; 13cisRA 100 mg kg^−1 with single dose R116010 at 2.5 mg kg^−1, SH-SY5Y tumour, 6 h): 0.59 ± 0.07 µg/g | Effect on levels of the 4-oxo-RA metabolites in tumour ([1]; 13cisRA or ATRA in combination with R116010 vs retinoid alone): no significant differences | Effect on levels of ATRA in tumour samples ([1]; 13cisRA-treated mice with R116010): not significantly affected | Increase in plasma ATRA concentrations ([1]; ATRA 100 mg kg^−1 after four doses of R116010 at 2.5 mg kg^−1 vs ATRA alone, 6 h): ≤ 2.3 fold | Effect on liver 13cisRA or ATRA levels ([1]; ATRA 100 mg kg^−1 in combination with R116010, 6 h): No significant increases | Effect on liver 13cis-4-oxo-RA and AT-4-oxo-RA levels ([1]; ATRA 100 mg kg^−1 in combination with R116010 or after R116010 pretreatment, 6 h): significant decreases | Effect on plasma 13cisRA concentrations [1, 4]: marginal | Effect on plasma AT-4-oxo-RA levels [1, 4]: no effect | Effect on liver 13cisRA levels ([1]; R116010 before 13cisRA 100 mg kg^−1, 6 h): not associated with 13cisRA levels being different from control | Effect on liver 13cis-4-oxo-RA and AT-4-oxo-RA concentrations ([1]; R116010 before 13cisRA 100 mg kg^−1, all conditions, 6 h): significantly lower levels | Effect on levels of retinoids in tumour tissue ([1]; R116010 before ATRA): no significant differences | Effect on ATRA concentrations after incubation with 13cisRA ([2]; NGP cells, 10 μM 13cisRA with 1 or 10 μM R116010, 24 h): similar, although nonsignificant, trend | Effect on ATRA levels after incubation with 13cisRA ([2]; SH-EP or GIMEN cells, 10 μM 13cisRA with 1 or 10 μM R116010, 24 h): no observable effect | Effect on intracellular ATRA concentrations after ATRA treatment ([2]; SH-EP or GIMEN cells, 10 μM ATRA with 1 or 10 μM R116010, 24 h): no effect | Effect on intracellular ATRA concentrations after ATRA treatment ([2]; SH-SY5Y and NGP cells, 10 μM ATRA with 1 or 10 μM R116010, 24 h): significant increases | Effect on ATRA concentrations after incubation with 13cisRA ([2]; SH-SY5Y cells, 10 μM 13cisRA with 1 or 10 μM R116010, 24 h): significant increase | Effect on 13cisRA concentrations after incubation with 13cisRA ([2]; all four cell lines, 10 μM 13cisRA with 1 or 10 μM R116010, 24 h): no significant changes | Effect on 13cisRA levels after incubation with ATRA ([2]; any of the cell lines, 10 μM ATRA with 1 or 10 μM R116010, 24 h): no effect
